Data from US20220257642A1, “METHODS AND COMPOSITIONS FOR GENERATING NITRIC OXIDE AND USES THEREOF TO DELIVER NITRIC OXIDE VIA THE RESPIRATORY TRACT” (THIRTY RESPIRATORY LIMITED, priority 2019, published 2022).

Experiments:
[1] = test system: SARS-CoV-2 clinical isolate; assay: SARS-CoV-2 virus yield reduction assay in Vero E6 cells; type: cell-based
Procedure: At time 0 hr, Vero E6 cells were infected with virus in presence of the formulation or controls and incubated for 1 hour. After this incubation period the inoculum was removed and the cells were washed. Fresh formulation or controls were then added to the washed cells. At 24 hours post infection, Vero E6 cell supernatants were harvested and titrated, and the virus titration was incubated for 6 days prior to readout to determine any virus yield reduction. Separate tests were performed at four MOIs including 3.0 and 0.3, although only those two MOIs were titrated. The readout was by crystal violet (cell monolayer) staining, followed by CPE scoring.

| SMILES | In vitro antiviral action against SARS-CoV-2 ([1]; FIGS. 33 and 34) | Cytotoxicity on the LDH assay (Vero E6 cells) | SARS-CoV-2 virus titre ([1]; FIG. 33, Run 1, MOI 3.0, 24 hours) | SARS-CoV-2 virus titre ([1]; FIG. 34, Run 2, MOI 3.0 and MOI 0.3, 48 hours) |
| --- | --- | --- | --- | --- |
| O=C(O)CC(O)(CC(=O)O)C(=O)O [citric acid pH 5.8, citric acid] | high in vitro antiviral action | low cytotoxicity |  |  |
| CCN(CC)CCCC(C)Nc1ccnc2cc(Cl)ccc12 (stereo not shown) [chloroquine, Chloroquine phosphate] |  |  | limit of detection | limit of detection |
